Legend:
[1] = system: receptor (receptor binding assay) or mouse free fat cell (lipogenesis); assay: Biological activity relative to human insulin, receptor binding or lipogenesis assays; conditions: for Activity relative to human insulin (= 1.00): either receptor binding or lipogenesis assays
Source text: Metab. Res. 6, 12-16 and Vølund (1978) Biometrics 34, 357-365 or in the receptor binding assay as described by Andersen et al. (1992) J. Biol. Chem. 267, 13681-13686.
Methods of analysing the biological activity (hypoglycaemic effect) of insulins are well know, and include receptor binding assays using whole cells or soluble receptors, the mouse free fat cell assay, euglycaemic pig clamp assay, intravenous rabbit blood glucose assay and the subcutaneous mouse blood glucose assay (Vølund et al. (1991) Diabetic Medicine, 8, 839-847, Brange et al. (1990) Diabetes Care 13, 923-954, Drejer (1992) Diabetes/Metabolism Reviews 8, 259-286)

NOD mice [2] = assay: Effect on blood glucose level of daily subcutaneous injection in NOD mice (Example 1); assay type: in vivo, mouse; conditions: for effect on blood glucose level: day 7, 6 hours after injection, female NOD mice
Protocol: Furthermore, 4 of the 5 animals receiving insulin (3.8 mg/kg) died of hypoglycaemia after 3-5 days of treatment and animal number five had to be sacrificed on day seven due to symptoms of hypoglycaemia.

NOD mice [3] = assay: Prophylactic effect of daily subcutaneous administration on diabetes and survival in NOD mice (Example 2); assay type: in vivo; conditions: for protection against development of diabetes compared with human insulin: daily s.c., equimolar doses (0.77 mg/kg), NOD mice; for diabetes incidence versus buffer treated animals at 40 weeks of age: s.c. daily 0.77 mg/kg from 5 to 32 weeks of age, after termination of treatment; for diabetes incidence versus buffer treated animals at 31 weeks of age: s.c. daily 0.77 mg/kg from 5 weeks of age, after 26 weeks of treatment, female NOD mice; for mice died of hypoglycaemia during the treatment period: 0.77 mg/kg
Protocol: Female NOD (non-obese diabetic) mice, 4 weeks old, were obtained from Bommice (Bomholtgård, Ry, Denmark). At the beginning of the experiment there were a total of 30 animals in each of the three groups mentioned below. […] The treatment was continued until the mice were 32 weeks old, at which age treatment was stopped and the mice observed until they were 40 weeks old. Beginning when the mice were 10 weeks old, the urine was tested weekly for the presence of glucose using glucosuria test tape (Tes-Tape, Lilly, Indianapolis, Ind.). If an animal tested positive in the glucose urine test, a blood sample was taken and blood glucose measured using a glucose analyzer. If the blood glucose was 15 mmol/l or higher, the animal was classified as diabetic and then sacrificed.

NOD mice [4] = assay: Daily subcutaneous administration in the initial stage of diabetes in NOD mice (Example 3); assay type: in vivo; conditions: for frequency of diabetes compared to buffer treated animals: s.c. daily 0.77 mg/kg from 10 to 37 weeks of age, effect from 15 weeks until end, female NOD mice; for cases of diabetes after termination of the treatment: treatment stopped at 37 weeks, observed until 39 weeks
Protocol: Female NOD (non-obese diabetic) mice, 4-5 weeks old, were obtained from the Jackson Laboratory (Bar Harbour, Me.). At the beginning of the experiment, there were a total of 20 animals in each of the three groups mentioned below. […] The treatment was continued until the mice were 37 weeks old, at which age treatment was stopped. The mice were observed until they were 39 weeks old. Beginning when the mice were 10 weeks old, the urine was tested weekly for the presence of glucose using glucosuria test tape (Tes-Tape, Lilly, Indianapolis, Ind.). If an animal tested positive in the glucose urine test, a blood sample was taken and blood glucose measured using a glucose analyzer. If the blood glucose was 15 mmol/l or higher, the animal was classified as diabetic and sacrificed.

C57/BL mice = assay: Effect of oral administration on blood glucose level in mice (Example 4); assay type: in vivo, mouse; conditions: oral gavage 1 mg, 2 times a week, after 4 weeks of treatment; non-fasted; 15 minutes
Protocol: After 4 weeks of treatment, the effect on the blood glucose level in non-fasted animals was analyzed. An initial blood sample was taken in order to determine the control blood glucose level. 15-30 minutes later the animals were fed by gavage and the blood glucose level was determined after further 15, 60 and 180 minutes. […] Insulin is a well known growth factor and has a direct mitogenic effect. The consequence of having a high concentration of intact insulin in the gut lumen directly exposing gut epithelium to its effect is not known but could potentially be serious.

Substance | Activity relative to human insulin (= 1.00) [1] | also measured
Abu^A2,Abu^A3 human insulin | 0.0041 | –
Ala^A2 human insulin | 0.006 | –
Asn^B12 human insulin | 0.002 | –
Asp^B25 human insulin | 0.001 | hormonally active (relative to human insulin) [1]: less than 0.1%; mice died or displayed hypoglycaemia (NOD mice [2]; s.c. daily 17.3, 5.8 or 0.6 mg/kg, 26 days observation period): None; effect on blood glucose level (NOD mice [2]; s.c. daily 17.3, 5.8 or 0.6 mg/kg): do not affect the blood glucose levels; cases of diabetes after termination of treatment (NOD mice [3]; 0.77 mg/kg s.c. daily until 32 weeks, observed until 40 weeks): 1 case; protection against development of diabetes compared with human insulin (NOD mice [3]; listed as X38, 0.77 mg/kg): prevented the development of diabetes to the same, or higher degree as insulin did; protection against development of diabetes compared with human insulin (NOD mice [3]; listed as human insulin with a single amino acid substitution in position B25, 0.77 mg/kg): protects as well against diabetes as equimolar doses of human insulin does; diabetes incidence versus buffer treated animals at 40 weeks of age (NOD mice [3]): still highly significantly lower; diabetes incidence versus buffer treated animals at 31 weeks of age (NOD mice [3]): highly significantly (p<0.01) lower; treated animals died (NOD mice [3]; s.c. daily 0.77 mg/kg, 30 animals per group, not statistically different from buffer group): one; frequency of diabetes compared to buffer treated animals (NOD mice [4]): reduced the frequency of diabetes to the same, or higher degree as insulin did; treated animals died (NOD mice [4]; s.c. daily 0.77 mg/kg, 20 animals per group): none; cases of diabetes after termination of the treatment (NOD mice [4]): no cases of diabetes occurred
D-Ala^B12 human insulin | 0.007 | –
D-Cys^A6 human insulin | 0.0023 | –
D-Cys^A6,D-Cys^A11 human insulin | 0.00027 | –
D-Cys^A7 human insulin | 0.002 | –
D-Cys^A11 human insulin | 0.007 | –
D-allo Ile^A2 human insulin | 0.002 | –
Glu^B12 human insulin | 0.0004 | –
Gly^A2 human insulin | 0.01 | –
Gly^A2,Gly^A3 human insulin | 0.00014 | –
Gly^B6 human insulin | 0.0005 | –
Leu^A3 human insulin | 0.0018 | –
Leu^A19 human insulin | 0.001 | –
Nle^A2 human insulin | 0.01 | –

Substance | Activity relative to human insulin (= 1.00) [1] | also measured
Nle^A3 human insulin | 0.0038 | –
Nva^A3 human insulin | 0.014 | –
Phe^B12 human insulin | 0.002 | –
Pro^A2 human insulin | 0.01 | –
Ser^A6,Ser^A11,des(A8-A10) human insulin | 0.0001 | –
Thr^A2 human insulin | 0.001 | –
Val^A2,Ile^A3 human insulin | 0.021 | –
des (A1-A2) human insulin | 0.0014 | –
des (A1-A3) human insulin | 0.0011 | –
des (B1-B5) human insulin | 0.05 | –
des (B1-B6) human insulin | 0.0004 | –
des (B23-B30) human insulin | 0.001 | –
des (B24-B30) human insulin | 0.002 | –
des (B25-B30) human insulin | 0.06 | –
desA1 human insulin | 0.006 | –
desA21 human insulin | 0.04 | –
human insulin [reference compound] | – | effect on blood glucose level (NOD mice [2]; s.c. daily 0.6 mg/kg): marked hypoglycaemic effect; time of death from hypoglycaemia (NOD mice [2]; s.c. daily 3.8 mg/kg, days of treatment): 3 to 5 days; animals died of hypoglycaemia (NOD mice [2]; s.c. daily 3.8 mg/kg, group of 5 NOD mice): 4 of the 5; diabetes incidence versus buffer treated animals at 40 weeks of age (NOD mice [3]): still significantly (p<0.05) lower; diabetes incidence versus buffer treated animals at 31 weeks of age (NOD mice [3]): significantly reduced the incidence of diabetes; mice died of hypoglycaemia during the treatment period (NOD mice [3]; s.c. daily 0.77 mg/kg, 30 animals per group): approx. 50%; mice died of hypoglycaemia during the treatment period (NOD mice [3]; s.c. daily 0.77 mg/kg, 30 animals per group, listed as insulin): 50%; frequency of diabetes compared to buffer treated animals (NOD mice [4]): reduced the frequency of diabetes; cases of diabetes after termination of the treatment (NOD mice [4]): no cases of diabetes occurred; blood glucose level immediately after feeding (C57/BL mice): profound immediate reduction in the blood glucose level

— patent publication US20010041669A1, “Prevention of diabetes” (priority 1995, published 2001)
